Measured values: patent publication US20140221378A1, “SUBSTITUTED SPIROPYRIDO[1,2-a]PYRAZINE DERIVATIVE AND PHARMACEUTICAL USE OF SAME AS HIV INTEGRASE INHIBITOR” (priority 2012, published 2014)
Structures can show the parent of a compound that is named as a salt. Where two headings read alike, the source gives them in different places.

System: HIV-1 NL4-3 strain
Experiment: Antiviral activity in acute infection system of MT-4 cell with HIV-1 NL4-3 strain (Cell Titer-Glo)
Type: cell-based
[1] = antiviral activity, MT-4 cells infected with HIV-1 NL4-3 strain, MOI 0.05, 5 days culture, Cell Titer-Glo luminescence, read-out: EC50

Question: With CO[C@H]1C[C@]2(CN(C)C(=O)c3c(O)c(=O)c(C(=O)NCc4cccc(Cl)c4F)cn32)C1 [Example 1, N-(3-chloro-2-fluorobenzyl)-9′-hydroxy-cis-3-methoxy-2′-methyl-1′,8′-dioxo-1′,2′,3′,8′-tetrahydrospiro[cyclobutane-1,4′-pyrido[1,2-a]pyrazine]-7′-carboxamide hydrochloride] as the compound, how does the EC50 (Human immunodeficiency virus 1, NL43, MT4, 120 h, antiviral activity, MT-4 cells infected with HIV-1 NL4-3 strain, MOI 0.05, 5 days culture, Cell Titer-Glo luminescence) read?
Answer: 3.1 nM

Question: Which EC50 (Human immunodeficiency virus 1, NL43, MT4, antiviral activity, MT-4 cells acutely infected with HIV-1 NL4-3 strain (wild type), Cell Titer-Glo, read-out: EC50) does the source give for CCN1C[C@@]2(C[C@@H]2COC)n2cc(C(=O)NCc3cccc(C(F)(F)F)c3F)c(=O)c(O)c2C1=O [Example T27, (1S, 2S)-2′-ethyl-N-(2-fluoro-3-(trifluoromethyl)benzyl)-9′-hydroxy-2-(methoxymethyl)-1′,8′-dioxo-1′,2′,3′,8′-tetrahydrospiro[cyclopropane-1,4′-pyrido[1,2-a]pyrazine]-7′-carboxamide] here?
Answer: 97 nM

Question: With “cis-3-(benzyloxy)-N-(2,4- difluorobenzyl)-9′-hydroxy- 2′-isopropyl-1′,8′-dioxo- 1′,2′,3′,8′- tetrahydrospiro[cyclobutane- 1,4′-pyrido[1,2-a]pyrazine]- 7′-carboxamide hydrochloride [Example S2]” as the compound, how does the EC50 [1] read?
Answer: 10 nM

Question: Which EC50 (Human immunodeficiency virus 1, NL43, MT4, 120 h, antiviral activity, MT-4 cells infected with HIV-1 NL4-3 strain, MOI 0.05, 5 days culture, Cell Titer-Glo luminescence, read-out: EC50) does the source give for CO[C@H]1C[C@]2(Cn3cc(C(=O)NCc4cccc(Cl)c4F)c(=O)c(O)c3C(=O)N2C)C1 [Example S63, N-(3-chloro-2-fluorobenzyl)-9′-hydroxy-cis-3-methoxy-2′-methyl-1′,8′-dioxo-1′,2′,4′,8′-tetrahydrospiro[cyclobutane-1,3′-pyrido[1,2-a]pyrazine]-7′-carboxamide hydrochloride] here?
Answer: 4 nM

Question: With “N-(3-chloro-2-fluorobenzyl)- 2′-ethyl-9′-hydroxy-trans-3- (hydroxymethyl)-1′,8′-dioxo- 1′,2′,4′,8′- tetrahydrospiro[cyclobutane- 1,3′-pyrido[1,2-a]pyrazine]- 7′-carboxamide hydrochloride [Example S58]” as the compound, how does the EC50 [1] read?
Answer: 6.8 nM
